Experiment [1] has as its system Escherichia coli. Kind of experiment: Antibacterial activity against Escherichia coli ATCC 25922 by serial dilution method. Format: functional.
For experiment [2], the system named is Pseudomonas aeruginosa. Kind of experiment: Antibacterial activity against Pseudomonas aeruginosa ATCC 27853 by serial dilution method. The experiment is classed as functional.
In experiment [3] the test system is Bacillus subtilis. Kind of experiment: Antibacterial activity against Bacillus subtilis ATCC 6033 by serial dilution method. The experiment is classed as functional.
In experiment [4] the test system is Staphylococcus aureus. Kind of experiment: Antibacterial activity against Staphylococcus aureus ATCC 25923 by serial dilution method. Format: functional.
Experiment [5] has as its system Enterococcus faecalis. Description: Antibacterial activity against Streptococcus faecalis ATCC 29212 by serial dilution method. The experiment is classed as functional.
The subject of experiment [6] is Aspergillus flavus. Kind of experiment: Antifungal activity against Aspergillus flavus NCIM 539 by serial dilution method. The experiment is classed as functional.
Experiment [7] concerns Aspergillus niger. Kind of experiment: Antifungal activity against Aspergillus niger NCIM 590 by serial dilution method. The experiment is classed as functional.
The test system of experiment [8] is Candida albicans. Description: Antifungal activity against Candida albicans NCIM C27 by serial dilution method. The experiment is classed as functional.
For experiment [9], the system named is Klebsiella pneumoniae. Description: Antibacterial activity against Klebsiella pneumoniae ATCC 13883 by serial dilution method. Format: functional.
The test system of experiment [10] is Aspergillus flavus. Kind of experiment: Antifungal activity against Aspergillus flavus NCIM 539 at 64 ug/mL by serial dilution method. The experiment is classed as functional, organism-based.
Experiment [11] has as its system Aspergillus niger. Kind of experiment: Antifungal activity against Aspergillus niger NCIM 590 at 64 ug/mL by serial dilution method. The experiment is classed as functional, organism-based.
Experiment [12] deals with Candida albicans. Description: Antifungal activity against Candida albicans NCIM C27 at 64 ug/mL by serial dilution method. Format: functional, organism-based.
Experiment [13] has as its system Klebsiella pneumoniae. Description: Antibacterial activity against Klebsiella pneumoniae ATCC 13883 at 64 ug/mL by serial dilution method. The experiment is classed as functional, organism-based.
Experiment [14] concerns Escherichia coli. Kind of experiment: Antibacterial activity against Escherichia coli ATCC 25922 at 64 ug/mL by serial dilution method. The experiment is classed as functional, organism-based.
Experiment [15] deals with Bacillus subtilis. Kind of experiment: Antibacterial activity against Bacillus subtilis ATCC 6033 at 64 ug/mL by serial dilution method. Format: functional, organism-based.

Values after ≈ are worked out from the molar mass of the structure shown. Active and inactive are the calls of the source. The rule behind the calls is not given here.

For `COc1cc(S(=O)(=O)N2CCC(C)CC2)ccc1-n1cnc2c(=O)[nH]c(N)nc21`, the minimum inhibitory concentration (MIC) in [1] was found to be 16 µg/mL (≈ 38.2 µM); in [2], 64 µg/mL (≈ 153 µM); in [3], 16 µg/mL (≈ 38.2 µM); in [4], 32 µg/mL (≈ 76.5 µM); in experiment [5], 32 µg/mL (≈ 76.5 µM); in experiment [6], 16 µg/mL (≈ 38.2 µM). The MIC in experiment [7], in [8] and in experiment [9] was 32 µg/mL (≈ 76.5 µM) each time.

Turning to `Nc1nc2c(ncn2-c2ccc(S(=O)(=O)N3CCCCC3)cc2F)c(=O)[nH]1`, the MIC stood at 64 µg/mL (≈ 163 µM) in experiment [1]; 64 µg/mL (≈ 163 µM) in experiment [2]; 32 µg/mL (≈ 81.5 µM) in [3]; 32 µg/mL (≈ 81.5 µM) in [4]; 16 µg/mL (≈ 40.8 µM) in experiment [5]; 32 µg/mL (≈ 81.5 µM) in experiment [9]. In addition, the outcome in [10], in experiment [11] and in experiment [12] was inactive.

As for `Nc1nc2c(ncn2-c2ccc(S(=O)(=O)N3CCCCC3)cc2Cl)c(=O)[nH]1`, the minimum inhibitory concentration (MIC) came out at 16 µg/mL (≈ 39.1 µM) in [1]; 8 µg/mL (≈ 19.6 µM) in [2]; 32 µg/mL (≈ 78.3 µM) in [3]; 4 µg/mL (≈ 9.78 µM) in experiment [4]; 4 µg/mL (≈ 9.78 µM) in [5]; 64 µg/mL (≈ 157 µM) in [6]. Moreover, the MIC in experiment [7] is 64 µg/mL (≈ 157 µM); in experiment [8], 64 µg/mL (≈ 157 µM); in [9] it was 16 µg/mL (≈ 39.1 µM).

For the compound `CC1CCN(S(=O)(=O)c2ccc(-n3cnc4c(=O)[nH]c(N)nc43)cc2)CC1`, the MIC in experiment [2], in experiment [3], in experiment [4] and in [5] was 64 µg/mL (≈ 165 µM) throughout. Also, the outcome in [13], in experiment [14], in experiment [15], in experiment [10], in experiment [11] and in experiment [12] was inactive.

Consider `CCn1cc(C(=O)O)c(=O)c2cc(F)c(N3CCNCC3)cc21` [NORFLOXACIN], for which the minimal inhibitory concentration (MIC) in [1] stood at 16 µg/mL (≈ 50.1 µM); in experiment [2], 8 µg/mL (≈ 25.1 µM); in experiment [3], 32 µg/mL (≈ 100 µM); in experiment [4], 8 µg/mL (≈ 25.1 µM); in [5], 8 µg/mL (≈ 25.1 µM); in experiment [9], 16 µg/mL (≈ 50.1 µM).

For `COc1cc(S(=O)(=O)N2CCCCC2)ccc1-n1cnc2c(=O)[nH]c(N)nc21`, the minimum inhibitory concentration (MIC) was found to be 32 µg/mL (≈ 79.1 µM) in experiment [1]; 64 µg/mL (≈ 158 µM) in experiment [2]; 16 µg/mL (≈ 39.6 µM) in [3]; 64 µg/mL (≈ 158 µM) in experiment [4]; 64 µg/mL (≈ 158 µM) in experiment [5]; 16 µg/mL (≈ 39.6 µM) in [6]. Besides, the minimal inhibitory concentration (MIC) in experiment [7] turned out to be 16 µg/mL (≈ 39.6 µM); in experiment [8] it was 32 µg/mL (≈ 79.1 µM); in experiment [9] it was 32 µg/mL (≈ 79.1 µM).

As for `CC1CCN(S(=O)(=O)c2ccc(-n3cnc4c(=O)[nH]c(N)nc43)c(Cl)c2)CC1`, the MIC in experiment [1] came out at 16 µg/mL (≈ 37.8 µM); in experiment [2] it was 16 µg/mL (≈ 37.8 µM); in [3] it was 32 µg/mL (≈ 75.7 µM); in [4], 4 µg/mL (≈ 9.46 µM); in experiment [5], 8 µg/mL (≈ 18.9 µM); in experiment [6] it was 32 µg/mL (≈ 75.7 µM). The MIC worked out at 32 µg/mL (≈ 75.7 µM) in experiment [7], 64 µg/mL (≈ 151 µM) in experiment [8] and 16 µg/mL (≈ 37.8 µM) in [9].

As for `CC1CCN(S(=O)(=O)c2ccc(-n3cnc4c(=O)[nH]c(N)nc43)c(F)c2)CC1`, the MIC in experiment [1] amounted to 32 µg/mL (≈ 78.7 µM); in experiment [2], 64 µg/mL (≈ 157 µM); in [3], 64 µg/mL (≈ 157 µM); in experiment [4] it was 32 µg/mL (≈ 78.7 µM); in experiment [5] it was 32 µg/mL (≈ 78.7 µM); in experiment [6], 64 µg/mL (≈ 157 µM). Further, the MIC is 32 µg/mL (≈ 78.7 µM) in [7], 64 µg/mL (≈ 157 µM) in [8] and 32 µg/mL (≈ 78.7 µM) in experiment [9].

Turning to `Nc1nc2c(ncn2-c2ccc(S(=O)(=O)N3CCCCC3)cc2)c(=O)[nH]1`, the MIC in [2], in experiment [4] and in [5] was 64 µg/mL (≈ 171 µM) each time. Moreover, the outcome in experiment [13], in experiment [14], in [15], in experiment [10], in experiment [11] and in experiment [12] was inactive.
